Data reported in US20240277682A1, “PHARMACEUTICAL HYDRONIDONE FORMULATIONS FOR DISEASES” (Gyre Therapeutics, Inc., priority 2021, published 2024).

Assay: In vitro drug-drug interaction with Entecavir and Lamivudine in human liver microsomes
Details: each 1.5 mM, P>0.05
Description: Entecavir and Lamivudine, were used concomitantly with Hydronidone, or individually, in the in vitro drug interaction experiments, in respective concentrations of each of 1.5 mM.

Nc1ccn([C@@H]2CS[C@H](CO)O2)c(=O)n1 [lamivudine, reference compound]
drug interactions with Hydronidone (residual drug concentrations, individual vs combined medication groups): do not exhibit drug interactions with Hydronidone
